# Measurements as given in the supplement of paper PMC12350171.
# Key:
# [1] = system: Yersinia pseudotuberculosis; assay: IC25 growth inhibition; higher = less potent
# Summary of the method: (§1)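 Overnight monocultures grown in mGAM were moved into pre-reduced plates containing twofold drug dilutions, at a starting OD578 of 0.01 with 1% DMSO (or water). Plates were kept anaerobic and read hourly at OD578 in a plate reader, with at least three biological replicates. For each concentration, the median area under the growth curve was made monotonic, and IC25 was the lowest concentration whose median fell below a cutoff, reported as a tested interval. That cutoff was 0.75.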
# Clostridium bolteae = assay: IC25 growth inhibition; higher = less potent
# Summary of the method: as §1
# Parabacteroides merdae = assay: IC25 growth inhibition; higher = less potent
# Summary of the method: as §1
# Streptococcus salivarius = assay: IC25 growth inhibition; higher = less potent
# Summary of the method: as §1
# Bacteroides vulgatus = assay: IC25 growth inhibition; higher = less potent
# Summary of the method: as §1
# Bacteroides fragilis NT = assay: IC25 growth inhibition; higher = less potent
# Summary of the method: as §1
# Clostridium ramosum = assay: IC25 growth inhibition; higher = less potent
# Summary of the method: as §1
# Bacteroides uniformis = assay: IC25 growth inhibition; higher = less potent
# Summary of the method: as §1
# [2] = system: Bacteroides thetaiotaomicron; assay: IC25 growth inhibition; higher = less potent
# Summary of the method: as §1
# Vibrio cholerae = assay: IC25 growth inhibition; higher = less potent
# Summary of the method: as §1
# [3] = system: Clostridium saccharolyticum; assay: IC25 growth inhibition; higher = less potent
# Summary of the method: as §1
# [4] = system: Salmonella enterica typhimurium; assay: IC25 growth inhibition; higher = less potent
# Summary of the method: as §1
# Collinsella aerofaciens = assay: IC25 growth inhibition; higher = less potent
# Summary of the method: as §1
# Escherichia coli ED1a = assay: IC25 growth inhibition; higher = less potent
# Summary of the method: as §1
# Roseburia intestinalis = assay: IC25 growth inhibition; higher = less potent
# Summary of the method: as §1
# [5] = system: Yersinia enterocolitica WA-314; assay: IC25 growth inhibition; higher = less potent
# Summary of the method: as §1
# Eubacterium rectale = assay: IC25 growth inhibition; higher = less potent
# Summary of the method: as §1
# Dorea formicigenerans = assay: IC25 growth inhibition; higher = less potent
# Summary of the method: as §1
# [6] = system: Streptococcus parasanguinis; assay: IC25 growth inhibition; higher = less potent
# Summary of the method: as §1
# Shigella flexneri = assay: IC25 growth inhibition; higher = less potent
# Summary of the method: as §1
# Clostridium perfringens = assay: IC25 growth inhibition; higher = less potent
# Summary of the method: as §1
# Ruminococcus gnavus = assay: IC25 growth inhibition; higher = less potent
# Summary of the method: as §1
# Coprococcus comes = assay: IC25 growth inhibition; higher = less potent
# Summary of the method: as §1
# [7] = system: Fusobacterium nucleatum subsp. Nucleatum; assay: IC25 growth inhibition; higher = less potent
# Summary of the method: as §1
# [8] = system: Com21 synthetic gut community; assay: community biomass OD578 after 24 h drug treatment relative to untreated (fraction of untreated control); higher = more community growth; details: community: Com21 (Com20 + E. coli ED1a)
# Experimental: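 Com21 (Com20 plus E. coli ED1a) was treated with drug for 24 h under anaerobic conditions in mGAM. Community OD578 was then measured and normalised to untreated Com21; mean of 3 biological replicates.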
# [9] = drug pretreatment concentration 10 µM
# [10] = drug pretreatment concentration 20 µM
# [11] = drug pretreatment concentration 40 µM
# [12] = drug pretreatment concentration 80 µM
# [13] = drug pretreatment concentration 160 µM
# 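Throughout, for IC25 growth inhibition: lowest concentration where monotonic median growth AUC falls below 0.75 of drug-free control.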
SMILES,IC25 growth inhibition [1] [µM],IC25 growth inhibition (Clostridium bolteae) [µM],IC25 growth inhibition (Parabacteroides merdae) [µM],IC25 growth inhibition (Streptococcus salivarius) [µM],IC25 growth inhibition (Bacteroides vulgatus) [µM],IC25 growth inhibition (Bacteroides fragilis NT) [µM],IC25 growth inhibition (Clostridium ramosum) [µM],IC25 growth inhibition (Bacteroides uniformis) [µM],IC25 growth inhibition [2] [µM],IC25 growth inhibition (Vibrio cholerae) [µM],IC25 growth inhibition [3] [µM],IC25 growth inhibition [4] [µM],IC25 growth inhibition (Collinsella aerofaciens) [µM],IC25 growth inhibition (Escherichia coli ED1a) [µM],IC25 growth inhibition (Roseburia intestinalis) [µM],IC25 growth inhibition [5] [µM],IC25 growth inhibition (Eubacterium rectale) [µM],IC25 growth inhibition (Dorea formicigenerans) [µM],IC25 growth inhibition [6] [µM],IC25 growth inhibition (Shigella flexneri) [µM],IC25 growth inhibition (Clostridium perfringens) [µM],IC25 growth inhibition (Ruminococcus gnavus) [µM],IC25 growth inhibition (Coprococcus comes) [µM],IC25 growth inhibition [7] [µM],"community biomass OD578 [8, 9]","community biomass OD578 [8, 10]","community biomass OD578 [8, 11]","community biomass OD578 [8, 12]","community biomass OD578 [8, 13]"
NC[C@H]1O[C@H](O[C@H]2[C@H](O)[C@@H](O[C@H]3O[C@H](CO)[C@@H](O)[C@H](N)[C@H]3O)[C@H](N)C[C@@H]2N)[C@H](N)C[C@@H]1O [Tobramycin],≤ 20,> 160,> 160,≤ 5,> 160,> 160,≤ 160,> 160,> 160,≤ 160,≤ 10,≤ 160,≤ 10,≤ 20,≤ 10,≤ 40,≤ 20,> 160,≤ 5,≤ 40,≤ 20,≤ 40,≤ 40,≤ 80,1.01,0.969,0.972,0.983,0.992
Cc1c(Cl)cccc1Nc1ccccc1C(=O)O [Tolfenamic acid],> 160,> 160,≤ 40,≤ 160,≤ 80,≤ 80,≤ 80,≤ 160,≤ 160,≤ 80,≤ 160,> 160,> 160,> 160,> 160,> 160,> 160,> 160,> 160,> 160,≤ 160,≤ 80,≤ 80,≤ 40,0.991,0.971,0.962,0.923,0.864
